What was measured:
[1] = biological target: T1, Adrenergic receptor alpha-1 (Rattus norvegicus, UniProt P15823+P23944+P43140); experiment: Displacement of [3H]prazosin from adrenergic alpha-1 receptor in rat cortical membranes at 1 uM; assay type: cell membranes, Membrane
T1 sequence (P15823 whole entry): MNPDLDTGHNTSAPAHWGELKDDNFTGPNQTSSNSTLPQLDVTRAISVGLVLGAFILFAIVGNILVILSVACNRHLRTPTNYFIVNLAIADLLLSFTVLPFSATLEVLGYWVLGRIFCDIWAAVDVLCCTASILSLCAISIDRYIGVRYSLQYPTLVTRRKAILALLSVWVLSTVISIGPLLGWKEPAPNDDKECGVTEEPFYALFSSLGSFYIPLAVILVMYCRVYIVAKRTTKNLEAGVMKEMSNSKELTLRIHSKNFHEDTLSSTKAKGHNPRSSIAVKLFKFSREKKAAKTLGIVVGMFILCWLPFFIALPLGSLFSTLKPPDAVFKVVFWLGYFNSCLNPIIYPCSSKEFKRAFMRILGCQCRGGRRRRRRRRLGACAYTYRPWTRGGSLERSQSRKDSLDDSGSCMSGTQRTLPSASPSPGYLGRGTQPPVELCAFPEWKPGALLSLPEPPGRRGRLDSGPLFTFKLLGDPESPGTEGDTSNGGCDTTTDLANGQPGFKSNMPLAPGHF
T1 sequence (P23944 whole entry): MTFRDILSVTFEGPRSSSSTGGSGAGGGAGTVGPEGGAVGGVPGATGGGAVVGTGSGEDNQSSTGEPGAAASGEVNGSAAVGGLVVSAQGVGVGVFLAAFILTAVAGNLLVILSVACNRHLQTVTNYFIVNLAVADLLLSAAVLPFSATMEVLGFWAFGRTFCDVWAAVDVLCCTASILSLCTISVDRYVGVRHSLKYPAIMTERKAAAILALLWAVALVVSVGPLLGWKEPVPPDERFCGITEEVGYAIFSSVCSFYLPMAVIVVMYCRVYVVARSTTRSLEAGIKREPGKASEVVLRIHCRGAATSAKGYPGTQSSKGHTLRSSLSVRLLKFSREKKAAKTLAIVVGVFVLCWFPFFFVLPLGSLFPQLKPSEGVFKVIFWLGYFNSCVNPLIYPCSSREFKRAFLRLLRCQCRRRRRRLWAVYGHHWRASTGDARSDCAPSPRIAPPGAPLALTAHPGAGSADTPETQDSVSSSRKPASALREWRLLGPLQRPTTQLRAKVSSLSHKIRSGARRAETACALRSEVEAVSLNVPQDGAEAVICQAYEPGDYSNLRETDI
T1 sequence (P43140 whole entry): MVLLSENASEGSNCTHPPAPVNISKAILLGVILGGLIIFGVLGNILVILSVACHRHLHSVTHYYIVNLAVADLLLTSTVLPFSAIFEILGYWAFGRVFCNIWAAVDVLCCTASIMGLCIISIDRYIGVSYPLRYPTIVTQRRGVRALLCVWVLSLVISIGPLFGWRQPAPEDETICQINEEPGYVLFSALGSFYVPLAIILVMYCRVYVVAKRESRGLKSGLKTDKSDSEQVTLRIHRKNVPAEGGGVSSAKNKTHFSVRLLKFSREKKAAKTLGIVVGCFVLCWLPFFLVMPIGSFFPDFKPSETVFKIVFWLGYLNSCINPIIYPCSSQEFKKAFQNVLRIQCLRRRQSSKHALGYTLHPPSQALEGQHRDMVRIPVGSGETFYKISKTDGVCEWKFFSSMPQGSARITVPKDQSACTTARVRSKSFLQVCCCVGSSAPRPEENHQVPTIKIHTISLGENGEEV

[2] = biological target: Sodium-dependent serotonin transporter (Rattus norvegicus, UniProt P31652); experiment: Displacement of [3H]paroxetine from 5HT reuptake site of rat cortical 5HTT
Sodium-dependent serotonin transporter, sequence (P31652 whole entry): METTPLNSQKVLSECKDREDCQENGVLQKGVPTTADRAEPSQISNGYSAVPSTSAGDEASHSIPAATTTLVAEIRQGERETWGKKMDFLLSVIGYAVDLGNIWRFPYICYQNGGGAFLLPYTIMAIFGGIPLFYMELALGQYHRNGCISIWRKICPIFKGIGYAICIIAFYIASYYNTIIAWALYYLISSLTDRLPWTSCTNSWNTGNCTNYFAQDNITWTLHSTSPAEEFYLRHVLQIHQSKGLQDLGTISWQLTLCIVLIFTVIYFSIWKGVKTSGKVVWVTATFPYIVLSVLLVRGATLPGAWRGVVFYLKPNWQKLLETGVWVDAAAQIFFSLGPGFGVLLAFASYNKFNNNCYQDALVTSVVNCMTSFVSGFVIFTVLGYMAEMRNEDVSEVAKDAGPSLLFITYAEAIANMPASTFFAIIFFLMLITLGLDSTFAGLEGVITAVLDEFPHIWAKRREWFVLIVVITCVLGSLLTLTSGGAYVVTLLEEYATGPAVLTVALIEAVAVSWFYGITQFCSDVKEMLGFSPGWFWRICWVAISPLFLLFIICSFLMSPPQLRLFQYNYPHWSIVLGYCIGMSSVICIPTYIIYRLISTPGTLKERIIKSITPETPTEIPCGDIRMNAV

[3] = biological target: T2, 5-hydroxytryptamine receptor 1A (Homo sapiens, UniProt P08908); experiment: Displacement of [3H]8-OH-DPAT from human 5HT1A receptor expressed in CHO cells; assay type: cell-based
T2 sequence (P08908 whole entry): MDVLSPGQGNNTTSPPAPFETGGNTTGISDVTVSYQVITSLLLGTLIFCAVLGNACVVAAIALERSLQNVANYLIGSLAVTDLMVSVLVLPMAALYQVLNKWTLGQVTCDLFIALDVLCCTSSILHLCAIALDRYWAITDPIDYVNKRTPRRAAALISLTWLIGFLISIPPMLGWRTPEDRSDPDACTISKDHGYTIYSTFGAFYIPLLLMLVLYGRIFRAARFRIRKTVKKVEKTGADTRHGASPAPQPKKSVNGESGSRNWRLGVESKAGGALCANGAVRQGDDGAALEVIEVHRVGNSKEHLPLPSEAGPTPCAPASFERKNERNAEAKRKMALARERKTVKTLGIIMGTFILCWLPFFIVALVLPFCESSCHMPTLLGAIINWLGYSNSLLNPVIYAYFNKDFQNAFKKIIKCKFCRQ

[4] = biological target: T2, 5-hydroxytryptamine receptor 1A; experiment: Displacement of [3H]8-OH-DPAT from human 5HT1A receptor expressed in CHO cells at 1 uM; assay type: cell-based
[5] = biological target: T1, Adrenergic receptor alpha-1; experiment: Displacement of [3H]prazosin from adrenergic alpha-1 receptor in rat cortical membranes; assay type: cell membranes, Membrane
[6] = biological target: T2, 5-hydroxytryptamine receptor 1A; experiment: Agonist activity at human 5HT1A receptor expressed in CHO membrane assessed as stimulation of [35S]GTP-gamma-S binding; assay type: functional, cell membranes
[7] = biological target: T3, 5-hydroxytryptamine receptor 1A (Homo sapiens) (UniProt P08908); experiment: Agonist activity at human 5HT1A receptor expressed in CHO membrane assessed as stimulation of [35S]GTPgammaS binding relative to 5HT; assay type: functional, cell membranes
T3 sequence (whole entry): T2 sequence (P08908 whole entry)

SMILES	Ki [2] [µM]	Ki [3] [µM]	Ki [5] [µM]	further results
CCCN(CCCc1c[nH]c2ccc(F)cc12)C1COc2c(ccc3ncccc23)C1 (racemic)	0.0124		1.2343	% inhibition [4]: 46%
Fc1ccc2[nH]cc(CCCCNC3COc4c(ccc5ncccc45)C3)c2c1 (racemic)	0.0015			% inhibition [4]: 47%; % inhibition [1]: 33%
Fc1ccc2[nH]cc(CCCNC3COc4ccc5ncccc5c4C3)c2c1 (racemic)			0.3242	
CCCN(CCc1c[nH]c2ccc(F)cc12)C1COc2ccc3ncccc3c2C1 (racemic)	0.0628		0.7112	
CCCN(CCCCc1c[nH]c2ccc(F)cc12)C1COc2c(ccc3ncccc23)C1 (racemic)				% inhibition [4]: 21%; % inhibition [1]: 19%
Fc1ccc2[nH]cc(CCCNC3COc4c(ccc5ncccc45)C3)c2c1 (racemic)	0.0026	0.105	0.4895	
Fc1ccc2[nH]cc(CCNC3COc4ccc5ncccc5c4C3)c2c1 (racemic)	0.0305		1.0787	% inhibition [4]: 10%
CCCN(CCCc1c[nH]c2ccc(F)cc12)C1COc2ccc3ncccc3c2C1 (single isomer, unassigned; (+)) [listing 1 of 2 here]	0.0198	0.058		% inhibition [1]: 38%; EC50 [6]: 0.301 µM
CCCN(CCCc1c[nH]c2ccc(F)cc12)C1COc2ccc3ncccc3c2C1 (single isomer, unassigned; (+)) [listing 2 of 2 here]				Emax [7]: 100%
Fc1ccc2[nH]cc(CCCNC3COc4c(ccc5ncccc45)C3)c2c1 (single isomer, unassigned; (+)) [listing 2 of 2 here]				Emax [7]: 75%
Fc1ccc2[nH]cc(CCCNC3COc4ccc5ncccc5c4C3)c2c1 (single isomer, unassigned; (-)) [listing 1 of 2 here]		0.314	0.221	EC50 [6]: 0.116 µM
Fc1ccc2[nH]cc(CCCNC3COc4c(ccc5ncccc45)C3)c2c1 (single isomer, unassigned; (-)) [listing 2 of 2 here]				Emax [7]: 100%
Fc1ccc2[nH]cc(CCCNC3COc4ccc5ncccc5c4C3)c2c1 (single isomer, unassigned; (-)) [listing 2 of 2 here]				Emax [7]: 86%
Fc1ccc2[nH]cc(CCCNC3COc4ccc5ncccc5c4C3)c2c1 (stereo in doubt; (+)-5) [listing 2 of 2 here]				Emax [7]: 100%
CCCN(CCCc1c[nH]c2ccc(F)cc12)C1COc2ccc3ncccc3c2C1 (stereo in doubt; (-)-6) [listing 1 of 2 here]	0.0088			% inhibition [1]: 31%
CCCN(CCCc1c[nH]c2ccc(F)cc12)C1COc2ccc3ncccc3c2C1 (stereo in doubt; (-)-6) [listing 2 of 2 here]				Emax [7]: 55%

Continued, in another order:

Ki [2] [µM]	Ki [3] [µM]	Ki [5] [µM]	SMILES	further results
0.0169	0.0635		CCCN(CCCc1c[nH]c2ccc(F)cc12)C1COc2ccc3ncccc3c2C1 (racemic)	% inhibition [1]: 18%
0.0092	0.0704	0.7725	COc1cccc2c1CC(NCCCc1c[nH]c3ccc(F)cc13)CO2 (racemic)	
0.003	0.392	0.6237	Fc1ccc2[nH]cc(CCCNC3COc4c(ccc5ncccc45)C3)c2c1 (single isomer, unassigned; (+)) [listing 1 of 2 here]	EC50 [6]: 0.332 µM
0.0012	0.0678	0.3877	Fc1ccc2[nH]cc(CCCNC3COc4c(ccc5ncccc45)C3)c2c1 (single isomer, unassigned; (-)) [listing 1 of 2 here]	EC50 [6]: 0.172 µM
	0.0239	0.5908	Fc1ccc2[nH]cc(CCCNC3COc4ccc5ncccc5c4C3)c2c1 (stereo in doubt; (+)-5) [listing 1 of 2 here]	

Reference: ChEMBL document CHEMBL1147955, “Novel pyridyl-fused 3-amino chroman derivatives with dual action at serotonin transporter and 5-HT1A receptor” (Bioorg Med Chem Lett, 2007)
